Experimental data reported in PMC6274445, “Compound Library Screening Identified Cardiac Glycoside Digitoxin as an Effective Growth Inhibitor of Gefitinib-Resistant Non-Small Cell Lung Cancer via Downregulation of α-Tubulin and Inhibition of Microtubule Formation” (Molecules, 2016).

Target: T1, Na+/K+-ATPase
T1 construct: gene ATP1A1
Experiment: in vitro enzymatic assay, inorganic phosphate release during ATP hydrolysis (Taussky-Shorr, […] nm)
Assay type: biochemical

## C[C@H]1O[C@@H](O[C@H]2[C@@H](O)C[C@H](O[C@H]3[C@@H](O)C[C@H](O[C@H]4CC[C@@]5(C)[C@H](CC[C@@H]6[C@@H]5CC[C@]5(C)[C@@H](C7=CC(=O)OC7)CC[C@]65O)C4)O[C@@H]3C)O[C@@H]2C)C[C@H](O)[C@@H]1O [Digitoxin]
  EC50: 0.78 µM
